We go through one compound from publication PMC11114115 (Molecular Pharmacology, 2024).

In this experiment the target is human M3R (M3 muscarinic acetylcholine receptor) (Homo sapiens, UniProt P20309). Put plainly: cell-based.

The EC50 is the concentration that produces a half-maximal response. A high value points to a less potent agent.

human M3R (M3 muscarinic acetylcholine receptor), sequence (P20309 whole entry): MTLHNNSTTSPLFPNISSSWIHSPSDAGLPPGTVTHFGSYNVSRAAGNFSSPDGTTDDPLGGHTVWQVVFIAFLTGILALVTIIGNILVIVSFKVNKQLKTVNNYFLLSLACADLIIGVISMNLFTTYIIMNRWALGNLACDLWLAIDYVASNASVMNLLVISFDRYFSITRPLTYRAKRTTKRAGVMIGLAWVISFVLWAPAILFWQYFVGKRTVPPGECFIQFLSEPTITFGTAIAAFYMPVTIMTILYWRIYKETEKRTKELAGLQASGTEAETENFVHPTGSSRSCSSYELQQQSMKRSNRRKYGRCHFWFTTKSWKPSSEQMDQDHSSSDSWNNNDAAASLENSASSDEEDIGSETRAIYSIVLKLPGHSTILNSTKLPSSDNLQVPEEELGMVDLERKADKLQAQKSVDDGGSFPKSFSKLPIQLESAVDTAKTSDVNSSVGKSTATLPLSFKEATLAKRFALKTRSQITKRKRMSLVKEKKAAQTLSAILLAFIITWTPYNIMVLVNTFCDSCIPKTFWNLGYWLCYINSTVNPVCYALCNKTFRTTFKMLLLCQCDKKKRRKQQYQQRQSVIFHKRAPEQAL

In turn, `C[N+](C)(C)CC#CCN1CCCC1=O` [Oxotremorine-M] gave an EC50 of 12.6 nM.
